Assay results: publication PMC7915724 (2021)

How the values were obtained:
Assay in all cases: SPR
[1] = test system: biotin-Py24 (VEGF i-motif) (DNA, i motif) GACCCCGCCCCCGGCCCGCCCCGG; conditions: 100 mM KCl; 20 mM MES pH 5.5, 0.05% Tween-20, 25 °C; tested up to 50 μM
[2] = test system: biotin-Hairpin (duplex DNA) (DNA, hairpin, HEG (hexaethylene glycol) linker between 10 and 11) TATAGCTATATATAGCTATA; conditions: 100 mM KCl; 20 mM Tris-HCl pH 7.4, 25 °C; tested up to 50 μM
[3] = test system: biotin-Py24 (VEGF i-motif) (DNA, i motif) GACCCCGCCCCCGGCCCGCCCCGG; conditions: 100 mM KCl, 20 mM MES pH 5.5, 0.05% Tween-20, 25 °C
[4] = test system: biotin-Pu24 (VEGF G-quadruplex) (DNA, G4) CCGGGGCGGGCCGGGGGCGGGGTC; conditions: 100 mM KCl; 20 mM Tris-HCl pH 7.4, 25 °C; tested up to 50 μM

KD [1] [µM]	KD [2] [µM]	KD ([3]; tested up to 50 μM) [µM]	KD [4] [µM]	KD [3] [µM]	SMILES
> 50					CC(=O)OC[C@H]1O[C@@H](n2cc(CNC(=O)[C@]34CCC(C)(C)C[C@H]3C3=CC[C@@H]5[C@@]6(C)CC[C@H](O)C(C)(C)[C@@H]6CC[C@@]5(C)[C@]3(C)CC4)nn2)[C@H](OC(C)=O)[C@@H](OC(C)=O)[C@@H]1OC(C)=O
	> 50	> 50	> 50		CC1(C)CC[C@]2(C(=O)N3CCC(N4CCCCC4)CC3)CC[C@]3(C)C(=CC[C@@H]4[C@@]5(C)CC[C@H](O)C(C)(C)[C@@H]5CC[C@]43C)[C@@H]2C1
> 50	> 50		> 50		CC1(C)CC[C@]2(C(=O)N3CCN(C(=O)Cn4cnc5[nH]c(=O)[nH]c(=O)c54)CC3)CC[C@]3(C)C(=CC[C@@H]4[C@@]5(C)CC[C@H](O)C(C)(C)[C@@H]5CC[C@]43C)[C@@H]2C1
> 50	> 50		> 50		CC1(C)CC[C@]2(C(=O)N3CCN(c4ccc(F)cc4F)CC3)CC[C@]3(C)C(=CC[C@@H]4[C@@]5(C)CC[C@H](O)C(C)(C)[C@@H]5CC[C@]43C)[C@@H]2C1
> 50	> 50		> 50		CC1(C)CC[C@]2(C(=O)N3CCN(c4cccc(C(F)(F)F)c4)CC3)CC[C@]3(C)C(=CC[C@@H]4[C@@]5(C)CC[C@H](O)C(C)(C)[C@@H]5CC[C@]43C)[C@@H]2C1
> 50	> 50		> 50		CC1(C)CC[C@]2(C(=O)N3CCN(c4ccccn4)CC3)CC[C@]3(C)C(=CC[C@@H]4[C@@]5(C)CC[C@H](O)C(C)(C)[C@@H]5CC[C@]43C)[C@@H]2C1
> 50	> 50		> 50		CC1(C)CC[C@]2(C(=O)N3CCN(c4ncccn4)CC3)CC[C@]3(C)C(=CC[C@@H]4[C@@]5(C)CC[C@H](O)C(C)(C)[C@@H]5CC[C@]43C)[C@@H]2C1
> 50	> 50		> 50		CC1(C)CC[C@]2(C(=O)NCCNC(=O)c3ccccc3Nc3ccccc3)CC[C@]3(C)C(=CC[C@@H]4[C@@]5(C)CC[C@H](O)C(C)(C)[C@@H]5CC[C@]43C)[C@@H]2C1
	> 50		> 50	13.8	CC1(C)CC[C@]2(C(=O)NCCNS(=O)(=O)N3CCOCC3)CC[C@]3(C)C(=CC[C@@H]4[C@@]5(C)CC[C@H](O)C(C)(C)[C@@H]5CC[C@]43C)[C@@H]2C1
	> 50		> 50	12.1	CC1(C)CC[C@]2(C(=O)NCCc3c[nH]cn3)CC[C@]3(C)C(=CC[C@@H]4[C@@]5(C)CC[C@H](O)C(C)(C)[C@@H]5CC[C@]43C)[C@@H]2C1
	> 50		> 50	12.3	CC1(C)CC[C@]2(C(=O)NCc3cn(-c4ncccn4)nn3)CC[C@]3(C)C(=CC[C@@H]4[C@@]5(C)CC[C@H](O)C(C)(C)[C@@H]5CC[C@]43C)[C@@H]2C1
	> 50		> 50	19.3	CC1(C)CC[C@]2(C(=O)NCc3cn(CCC#N)nn3)CC[C@]3(C)C(=CC[C@@H]4[C@@]5(C)CC[C@H](O)C(C)(C)[C@@H]5CC[C@]43C)[C@@H]2C1
	> 50		> 50	13.0	CC1(C)CC[C@]2(C(=O)NCc3cn(CCC(=O)O)nn3)CC[C@]3(C)C(=CC[C@@H]4[C@@]5(C)CC[C@H](O)C(C)(C)[C@@H]5CC[C@]43C)[C@@H]2C1
> 50					CC1(C)CC[C@]2(C(=O)NCc3cn(CCCN4CCCC4)nn3)CC[C@]3(C)C(=CC[C@@H]4[C@@]5(C)CC[C@H](O)C(C)(C)[C@@H]5CC[C@]43C)[C@@H]2C1
> 50					CC1(C)CC[C@]2(C(=O)NCc3cn(CCCN4CCOCC4)nn3)CC[C@]3(C)C(=CC[C@@H]4[C@@]5(C)CC[C@H](O)C(C)(C)[C@@H]5CC[C@]43C)[C@@H]2C1
> 50	> 50		> 50		CC1(C)CC[C@]2(C(=O)NCc3cn(CCCc4ccccc4)nn3)CC[C@]3(C)C(=CC[C@@H]4[C@@]5(C)CC[C@H](O)C(C)(C)[C@@H]5CC[C@]43C)[C@@H]2C1
> 50					CC1(C)CC[C@]2(C(=O)NCc3cn(CCN4CCCC4)nn3)CC[C@]3(C)C(=CC[C@@H]4[C@@]5(C)CC[C@H](O)C(C)(C)[C@@H]5CC[C@]43C)[C@@H]2C1
> 50					CC1(C)CC[C@]2(C(=O)NCc3cn(CCN4CCOCC4)nn3)CC[C@]3(C)C(=CC[C@@H]4[C@@]5(C)CC[C@H](O)C(C)(C)[C@@H]5CC[C@]43C)[C@@H]2C1
> 50					CC1(C)CC[C@]2(C(=O)NCc3cn(Cc4ccc(C(F)(F)F)cc4)nn3)CC[C@]3(C)C(=CC[C@@H]4[C@@]5(C)CC[C@H](O)C(C)(C)[C@@H]5CC[C@]43C)[C@@H]2C1
> 50	> 50		> 50		CC1(C)CC[C@]2(C(=O)NCc3cn(Cc4ccccc4)nn3)CC[C@]3(C)C(=CC[C@@H]4[C@@]5(C)CC[C@H](O)C(C)(C)[C@@H]5CC[C@]43C)[C@@H]2C1

KD [1] [µM]	KD [2] [µM]	KD ([3]; tested up to 50 μM) [µM]	KD [4] [µM]	KD [3] [µM]	SMILES
	> 50		> 50	10.6	CC1(C)CC[C@]2(C(=O)NCc3cn(Cc4nc5ccccc5[nH]4)nn3)CC[C@]3(C)C(=CC[C@@H]4[C@@]5(C)CC[C@H](O)C(C)(C)[C@@H]5CC[C@]43C)[C@@H]2C1
	> 50		> 50	12.0	CC1(C)CC[C@]2(C(=O)NCc3cn([C@@H]4O[C@H](CO)[C@@H](O)[C@H](O)[C@H]4O)nn3)CC[C@]3(C)C(=CC[C@@H]4[C@@]5(C)CC[C@H](O)C(C)(C)[C@@H]5CC[C@]43C)[C@@H]2C1
	> 50	> 50	> 50		CCOC(=O)Cn1cc(CNC(=O)[C@]23CCC(C)(C)C[C@H]2C2=CC[C@@H]4[C@@]5(C)CC[C@H](O)C(C)(C)[C@@H]5CC[C@@]4(C)[C@]2(C)CC3)nn1
> 50			> 50		CN(C)CCn1cc(CNC(=O)[C@]23CCC(C)(C)C[C@H]2C2=CC[C@@H]4[C@@]5(C)CC[C@H](O)C(C)(C)[C@@H]5CC[C@@]4(C)[C@]2(C)CC3)nn1
> 50					COC(=O)[C@]12CCC(C)(C)C[C@H]1C1=CC[C@@H]3[C@@]4(C)C=C(C(=O)NCCCN5CCCC5)C(=O)C(C)(C)[C@@H]4CC[C@@]3(C)[C@]1(C)CC2
> 50					COC(=O)[C@]12CCC(C)(C)C[C@H]1C1=CC[C@@H]3[C@@]4(C)C=C(C(=O)NCCCc5ccccc5)C(=O)C(C)(C)[C@@H]4CC[C@@]3(C)[C@]1(C)CC2
> 50					COC(=O)[C@]12CCC(C)(C)C[C@H]1C1=CC[C@@H]3[C@@]4(C)C=C(C(=O)NCCc5ccc(C(F)(F)F)cc5)C(=O)C(C)(C)[C@@H]4CC[C@@]3(C)[C@]1(C)CC2
	> 50	> 50	> 50		COC(=O)[C@]12CCC(C)(C)C[C@H]1C1=CC[C@@H]3[C@@]4(C)C=C(C(=O)O)C(=O)C(C)(C)[C@@H]4CC[C@@]3(C)[C@]1(C)CC2
> 50					COC(=O)[C@]12CCC(C)(C)C[C@H]1[C@H]1C(=O)C[C@@H]3[C@@](C)(CCC(=O)N4CCN(c5ccc(F)cc5F)CC4)[C@H](C(C)(C)O)CC[C@@]3(C)[C@]1(C)CC2
	> 50	> 50	> 50		COC(=O)[C@]12CCC(C)(C)C[C@H]1[C@H]1C(=O)C[C@@H]3[C@@](C)(CCC(=O)NCCCN(C)C)[C@H](C(C)(C)O)CC[C@@]3(C)[C@]1(C)CC2
	> 50		> 50	31.3	COC(=O)[C@]12CCC(C)(C)C[C@H]1[C@H]1C(=O)C[C@@H]3[C@@](C)(CCC(=O)NCCCN4CCOCC4)[C@H](C(C)(C)O)CC[C@@]3(C)[C@]1(C)CC2
	> 50		> 50	21.1	COC(=O)[C@]12CCC(C)(C)C[C@H]1[C@H]1C(=O)C[C@@H]3[C@@](C)(CCC(=O)NCCCn4ccnc4)[C@H](C(C)(C)O)CC[C@@]3(C)[C@]1(C)CC2
> 50					COC(=O)[C@]12CCC(C)(C)C[C@H]1[C@H]1C(=O)C[C@@H]3[C@@](C)(CCC(=O)NCCc4cccs4)[C@H](C(C)(C)O)CC[C@@]3(C)[C@]1(C)CC2
> 50					COC(=O)[C@]12CCC(C)(C)C[C@H]1[C@H]1C(=O)C[C@@H]3[C@@](C)(CCC(=O)Nc4ccc(F)cc4)[C@H](C(C)(C)O)CC[C@@]3(C)[C@]1(C)CC2
> 50					COC(=O)[C@]12CCC(C)(C)C[C@H]1[C@H]1C(=O)C[C@@H]3[C@@](C)(CCC(=O)Nc4ccc(OC(F)(F)F)cc4)[C@H](C(C)(C)O)CC[C@@]3(C)[C@]1(C)CC2
> 50					COC(=O)[C@]12CCC(C)(C)C[C@H]1[C@H]1C(=O)C[C@@H]3[C@@](C)(CCC(=O)Nc4ccc(OC)cc4)[C@H](C(C)(C)O)CC[C@@]3(C)[C@]1(C)CC2
	> 50	> 50	> 50		COc1ccc(C(=O)NCCNC(=O)[C@]23CCC(C)(C)C[C@H]2C2=CC[C@@H]4[C@@]5(C)CC[C@H](O)C(C)(C)[C@@H]5CC[C@@]4(C)[C@]2(C)CC3)c(OC)c1
> 50	> 50		> 50		COc1ccccc1N1CCN(C(=O)[C@]23CCC(C)(C)C[C@H]2C2=CC[C@@H]4[C@@]5(C)CC[C@H](O)C(C)(C)[C@@H]5CC[C@@]4(C)[C@]2(C)CC3)CC1
> 50	> 50		> 50		Cc1cn(CC(=O)N2CCN(C(=O)[C@]34CCC(C)(C)C[C@H]3C3=CC[C@@H]5[C@@]6(C)CC[C@H](O)C(C)(C)[C@@H]6CC[C@@]5(C)[C@]3(C)CC4)CC2)c(=O)[nH]c1=O
